“Also recorded” adds a separate entry of the source.
Tests used:
psoriasis = test: Clinical observation of psoriasis in CLL/SLL study subjects; type: in vivo, human
Text: Clinical studies have shown that targeting the BCR signaling pathway by inhibiting BTK produces significant clinical benefit in patients with various types of leukemias and lymphomas. Formula (II) achieves significant oral bioavailability and potency, and has favorable preclinical characteristics, as described above. The purpose of this study is to evaluate the safety and efficacy of the second generation BTK inhibitor of Formula (II) in treating subjects with chronic lymphocytic leukemia (CLL) and small lymphocytic lymphoma (SLL). The primary objectives of the clinical study are as follows: […] The secondary objective of the clinical study is to evaluate tumor responses in patients treated with Formula (II). In addition, effects of Formula (II) on other patient characteristics, such as dermatoses, were evaluated for particular patients enrolled in the study. This study is a multicenter, open-label, nonrandomized, sequential group, dose escalation study. The following dose cohorts are evaluated: The study scheme is a sequential cohort escalation. Each cohort consists of six subjects. The sample size of the study is 24 to 36 subjects, depending on dose escalation into subsequent cohorts. Cohort 1 (N=6) consists of Formula (II), 100 mg QD for 28 days. Cohort 2 (N=6) consists of Formula (II), 175 mg QD for 28 days. Cohort 3 (N=6) consists of Formula (II), 250 mg QD for 28 days. Cohort 4 (N=6) consists of Formula (II), 350 mg QD for 28 days. Cohort 5 (N=6) consists of Formula (II), 450 mg QD for 28 days. Cohort 6 (N=6) consists of Formula (II), at a dose to be determined QD for 28 days. The dose level for Cohort 6 will be determined based on the safety and efficacy of Cohorts 1 to 5, and will not exceed 900 mg/day. […] Treatment with oral Formula (II) may be continued for greater than 28 days until disease progression or an unacceptable drug-related toxicity occurs. The dosage form and strength of Formula (II) used in the clinical study is a hard gelatin capsules prepared using standard pharmaceutical grade excipients (microcrystalline cellulose) and containing 25 mg of Formula (II) each. The color of the capsules is Swedish orange. The route of administration is oral (per os, or PO). […] They were treated over time with several systemic therapies including etanercept, adalimumab, and a 2010 clinical study of an experimental agent. They initially responded to etanerceptbut continued to have flares, and was under the care of a dermatologist prior to enrolling in the clinical study. Their treatment history included topical medications, and recently included Taclonex (calcipotriene/betamethasone diproprionate), without much improvement in skin lesions.

[1] = Plasma pharmacokinetics in CLL patients; type: in vivo; details: human, oral administration
Text: In this indication, the rapid resynthesis of BTK in the tumor cells in the CLL cell compartment is observed as a steeper rate of decline in the percentage of BTK sites occupied by Formula (II), compared with what has been observed in normal peripheral blood cells of healthy volunteers (compare linear slope estimates of FIG. 25 with FIG. 34).

BTK [2] = biological target: T1, BTK (Homo sapiens, UniProt Q06187); test: p-BTK after ex vivo BCR stimulation in CD19+/CD5+ CLL tumor cells (phospho-flow cytometry); details: CLL patients on oral treatment
ID8 ovarian cancer = test: ID8 syngeneic orthotropic ovarian cancer murine model; type: in vivo, mouse; details: 15 mg/kg/BID orally vs vehicle
Text: The ID8 syngeneic orthotropic ovarian cancer murine model was used to investigate the therapeutic efficacy of the BTK inhibitor of Formula (II) through treatment of the solid tumor microenvironment. Human ovarian cancer models, including the ID8 syngeneic orthotropic ovarian cancer model and other animal models, are described in Fong and Kakar, J. Ovarian Res. 2009, 2, 12; Greenaway, et al., Gynecol. Oncol. 2008, 108, 385-94; Urzua, et al., Tumour Biol. 2005, 26, 236-44; Janat-Amsbury, et al., Anticancer Res. 2006, 26, 3223-28; Janat-Amsbury, et al., Anticancer Res. 2006, 26, 2785-89. Animals were treated with vehicle or Formula (II), 15 mg/kg/BID given orally. The results of the study are shown in FIG. 35A, FIG. 35B, FIG. 36, FIG. 37, FIG. 38A, FIG. 38B, FIG. 39A, and FIG. 39B.

BTK [3] = biological target: T1, BTK; test: Per cell BTK protein level in CD19+/CD5+ CLL tumor cells (flow cytometry); type: in vivo; details: 100 mg BID, after 4 weeks of treatment
Experimental: Peripheral blood samples were obtained and BTK protein levels were evaluated in CD19+/CD5+ tumor cells by flow cytometry.

BTK [4] = biological target: T1, BTK; test: BTK target occupancy in CD5+/CD19+ tumor cells of relapsed/refractory CLL patients; type: in vivo
Experimental: Peripheral blood samples were obtained over time and BTK target occupancy was evaluated using a BTK active-site specific probe in an ELISA assay.

[5] = tested on: BCR signaling through BTK; test: Anti-IgM induced CD86 and CD69 on splenocyte B cells of CIA mice; type: in vivo, mouse; details: splenocytes 3 hr after last dosing on day 14
Experimental: FIG. 45 illustrates changes in a functional measure of BCR signalling through the CD86 marker. Mouse splenocytes were isolated from spleens from mice that were part of the mouse CIA study semi-therapeutic protocol, 3 hr after the last dosing on day 14 of the treatment and cryopreserved. After thawing, inhibition of anti-IgM-induced PD markers CD86 and CD69 on mouse splenocyte B cells were measured. Error bars represent the standard deviation for the 3 sets of splenocytes analyzed.
FIG. 46 illustrates changes in a functional measure of BCR signalling through the CD69 marker. Mouse splenocytes were isolated from spleens from mice that were part of the mouse CIA study semi-therapeutic protocol, 3 hr after the last dosing on day 14 of the treatment and cryopreserved. After thawing, inhibition of anti-IgM-induced PD markers CD86 and CD69 on mouse splenocyte B cells were measured. Error bars represent the standard deviation for the 3 sets of splenocytes analyzed.
Inhibition of the BCR signaling through BTK was evaluated by ex vivo stimulation of splenocytes using IgM and evaluation of CD86 and CD69 as functional responses of BCR stimulation.

T1 sequence (Q06187 whole entry): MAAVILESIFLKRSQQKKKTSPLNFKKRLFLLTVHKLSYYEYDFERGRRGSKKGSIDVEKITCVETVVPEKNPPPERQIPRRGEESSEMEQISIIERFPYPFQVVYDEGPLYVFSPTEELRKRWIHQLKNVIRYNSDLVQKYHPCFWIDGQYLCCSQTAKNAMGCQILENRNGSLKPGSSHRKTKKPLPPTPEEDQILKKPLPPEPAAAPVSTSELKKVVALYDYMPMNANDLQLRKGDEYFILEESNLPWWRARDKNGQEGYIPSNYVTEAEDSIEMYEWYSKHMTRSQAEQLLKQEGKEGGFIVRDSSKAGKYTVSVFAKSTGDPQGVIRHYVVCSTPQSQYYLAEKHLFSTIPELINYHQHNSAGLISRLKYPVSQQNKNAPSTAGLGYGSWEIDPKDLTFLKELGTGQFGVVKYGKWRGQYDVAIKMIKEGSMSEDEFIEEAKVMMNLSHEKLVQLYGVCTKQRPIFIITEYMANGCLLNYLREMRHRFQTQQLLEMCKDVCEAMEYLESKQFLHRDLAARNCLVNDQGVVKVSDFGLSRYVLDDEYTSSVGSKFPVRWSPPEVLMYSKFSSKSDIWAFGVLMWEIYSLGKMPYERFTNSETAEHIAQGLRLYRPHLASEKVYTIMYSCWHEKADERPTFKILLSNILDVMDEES

CC#CC(=O)N1CCC[C@H]1c1nc(-c2ccc(C(=O)Nc3ccccn3)cc2)c2c(N)nccn12 [Formula (II), (S)-4-(8-amino-3-(1-(but-2-ynoyl)pyrrolidin-2-yl)imidazo[1,5-a]pyrazin-1-yl)-N-(pyridin-2-yl)benzamide]
Psoriasis Area and Severity Index achieved (PASI90) (psoriasis; Subject 1, CLL patient with severe psoriasis, 10 month visit): 90%
serum IL-6, MIP-1α, MCP-1β, TNFA, TARC, CXCLS, CD40L, TRAIL, EGF, CXCL1 relative to baseline (psoriasis; Subject 1, Day 28 of treatment): decreased
psoriatic skin disease (psoriasis; Subject 1, by Cycle 10 (10 months on treatment)): their skin was clear
moderate-to-severe plaque psoriasis (psoriasis; Subject 2, after initiation of treatment): cleared quickly
Tmax [1]: ~1 h
BCR-mediated signaling through BTK (p-BTK after ex vivo BCR stimulation) (BTK [2]): significantly inhibited; also recorded: decreased BTK activation
CD8+ T cells (ID8 ovarian cancer): increase
ID8 ovarian cancer growth (ID8 ovarian cancer): impairs ID8 ovarian cancer growth
immunosuppressive B cells in tumor-bearing mice (ID8 ovarian cancer): significant reduction
immunosuppressive tumor associated Tregs (ID8 ovarian cancer): significant reduction
immunosuppressive tumor-associated lymphocytes (ID8 ovarian cancer): significant reduction
decrease in BTK protein expression per cell (median, of pre-dose values) (BTK [3]): 26%
percentage BTK occupancy (BTK [4]; 100 mg BID compared with any QD dosing schedule): higher percentage BTK occupancy
resynthesis of BTK in CLL tumor cells (BTK [4]; 100 mg QD compared with 100 mg BID): more rapid than after 100 mg BID dosing
BTK occupancy in peripheral blood compartment (BTK [4]; 3-4 hours post dose, all treated subjects): full BTK occupancy
BTK target occupancy in circulating tumor cells throughout the dosing interval (BTK [4]; total daily doses above 200 mg, once-daily or twice-daily): > 90%
BCR-mediated signaling (anti-IgM induced CD86 and CD69) [5]: dose-responsive decreases in BCR-mediated signaling
